Key:
[1] = tested on: S. aureus strain SafabF/GFP; assay: Liquid GFP reporter assay for fabF antisense revertants (Relative Fluorescence Index); assay type: cell-based, Staphylococcus aureus; conditions: for change of RFI with increasing xylose concentration: 0, 7 and 14 mM xylose, drug concentrations approximating 50% inhibition of growth in no-xylose cells, 16 hours
From the text: The green fluorescent protein (GFP) reporter gene was used to identify fabF antisense revertants in liquid culture by the following method: S. aureus containing a plasmid encoding the antisense fabF DNA was used to develop an inducible GFP reporter system, where the GFP gene is transcriptionally silent until the fabF antisense containing plasmid DNA is deleted or rearranged. A plasmid, pM310, was constructed that consists of the fabF antisense vector (Forsyth et al, 2002), with a tetracycline repressor gene and its promoter (Geissendorfer et al., Appl. Microbiol. Biotechnol 1990, 33: 657-663) inserted downstream of the fabP antisense DNA. A second plasmid, pM302, was constructed that consists of the E. coli vector pUC19 (Gibco BRL) joined to the S. aureus vector pUB110 (ATCC 37015), through the EcoR1 and AatII restriction sites. At the pUC19 multicloning site, a GFP gene was inserted into the BamH1 and SalI restriction sites and a tetracycline operator containing promoter (Geissendorfer et al, 1990) was cloned into the EcoR1 and BamH1 sites. A S. aureus strain, SafabF/GFP, was constructed that contained both plasmids pM310 and pM302 and was resistant to chloramphenicol and kanamycin. SafabF/GFP was sensitive to xylose induction resulting in an increased sensitivity to cerulenin. In the presence of cerulenin, resistant revertants will be selected for, which have deleted the antisense vector, and along with this deletion, lost the tetracycline repressor gene. […] Revertants can be measured as a function of fluorescent readout relative to cell number.
To quantitatively measure the fabF revertants, a liquid assay was developed, where various concentrations of xylose were tested with various concentrations of the following test compounds: cerulenin, thiostrepton and ampicillin. […] A 96-well plate was used to measure growth of the culture and final absorbance after 16 hours of incubation at 37° C. […] The final absorbance as read at 590 nm (A590) and fluorescence of the GFP was measured by excitation at 485 nm wavelength and emission wavelength at 535 nm (E535), using a Tecan Spectrafluor Plus.
To detect a specific GFP response in the presence of a fabF selective inhibitor, cerulenin, the Relative Fluorescence Index (RFI) was calculated for each drug treatment and for each xylose treatment. The RFI is defined as E535/A590 ratio, normalized to the corresponding ratio calculated on no-xylose control cells within each drug test group. For instance, with 15 μg/ml cerulenin treatment, the E535/A590 ratio was calculated for 0, 7 and 14 mM xylose treated cells, and the ratio for each were divided by the E535/A590 ratio from the no-xylose treated cells. […]

[2] = tested on: S. aureus containing S1-1941, a plasmid expressing a xylose-inducible fabF anti-sense RNA; assay: Agar assay for fabF-acting substances: revertant colonies in the zone of inhibition; assay type: cell-based, Staphylococcus aureus; conditions: for appearance of revertant colonies / zone of growth inhibition on assay plate: 10 μL sample per well, thiotetramycin 1 mg/mL in DMSO, cerulenin 20 μg/mL in DMSO, kanamycin 100 μg/mL in water, xylose 23.6 mM, overnight 37° C., visual inspection
Procedure: S. aureus containing S1-1941, a plasmid expressing a xylose-inducible fabF anti-sense RNA (described in WO 00/44906 and in Forsyth et al., Mole. Microbiol. 2002, 43: 1387-1400), are inoculated into an LB broth culture medium supplemented with […] of chloramphenicol, and grown overnight at 37° C. with shaking (225 rpm). The culture is then diluted in the LB medium to a final optical density (λ=600 nm) of 0.3. Diluted cells (750 μL) are then added to a molten LB-agar medium (30 mL) supplemented with xylose (23.6 mM) and glucose (0.19 g/100 mL) and equilibrated at 48° C. The molten mixture is briefly mixed and is then poured onto sterile disposable polystyrene 86×128 mm dishes (NUNC Cat. No. 242811), after which a TSP (=transferable solid phase screening system) casting tray (NUNC Cat. No. 445497) is placed on top to cast wells. The dishes are allowed to cool down to room temperature for about 15 minutes and are then stored for no more than 2 days at 4° C. until ready for sample dispensing. Samples (10 μL) of one or more test substances (500 μM) and samples of controls, each dissolved in 100% DMSO, are subsequently dispensed into wells and the plates incubated overnight at 37° C. The incubated plates are then inspected visually for the appearance of revertant colonies to determine whether the test substance(s) act at the fabF protein.
The fabF-targeting control will produce revertant colonies in and around a zone of inhibition, and the non-fabF targeting control will produce a clear zone of inhibition (i.e., devoid of revertant colonies). The zones of inhibition of the test substances are compared to those of the controls to screen for fabF-acting substances.
The assay protocol set forth in Part A was employed to test whether thiotetramycin is a fabF-acting antibacterial agent. A 10 μL sample of thiotetramycin dissolved in 100% DMSO (1 mg/mL) was dispensed into one well of the plate. In addition, a 10 μL sample of cerulenin in 100% DMSO (20 μg/mL) and a 10 μL sample of kanamycin in water (100 μg/mL) were respectively dispensed into two wells as controls. After incubation as described in Part A, the plates were inspected visually for zones of bacterial growth.

Row | Compound | change of RFI with increasing xylose concentration [1] | appearance of revertant colonies / zone of growth inhibition on assay plate [2] | appearance of revertant colonies / zone of growth inhibition on assay plate ([2]; listed as Cerulenin) | maximum change of Relative Fluorescence Index (RFI) ([1]; 14 mM xylose and 15 μg/ml cerulenin, 16 hours at 37° C., normalized to no-xylose control cells) [fold] | appearance of revertant colonies / zone of growth inhibition on assay plate ([2]; listed as Thiotetramycin) | conclusion whether test substance is a fabF-acting antibacterial agent ([2]; from comparison with cerulenin and kanamycin controls)
1 | CC1(C)S[C@@H]2[C@H](NC(=O)[C@H](N)c3ccccc3)C(=O)N2[C@H]1C(=O)O [ampicillin] | No increase in RFI |  |  |  |  | 
2 | C/C=C/C/C=C/CCC(=O)[C@H]1O[C@H]1C(N)=O [cerulenin] | RFI increased with increasing xylose concentration | several visually observable revertant bacterial colonies | growth of revertant colonies in and around a zone of growth inhibition | 9 |  | 
3 | C=C(NC(=O)C(=C)NC(=O)c1csc(C2=N[C@@H]3c4csc(n4)[C@H]4NC(=O)c5csc(n5)[C@H]([C@](C)(O)[C@@H](C)O)NC(=O)[C@H]5CSC(=N5)/C(=C/C)NC(=O)[C@H]([C@@H](C)O)NC(=O)c5csc(n5)[C@]3(CC2)NC(=O)[C@H](C)NC(=O)C(=C)NC(=O)[C@H](C)NC(=O)[C@H]([C@@H](C)CC)N[C@@H]2C=Cc3c([C@H](C)O)cc(nc3[C@H]2O)C(=O)O[C@@H]4C)n1)C(N)=O [thiostrepton] | No increase in RFI |  |  |  |  | 
4 | thiotetramycin |  | several visually observable revertant bacterial colonies |  |  | growth of revertant colonies which appear as small white foci of growth in and around a zone of growth inhibition | selectively targets the fabF protein
